Assay results reported in US10696615B2, “Prenylated hydroxystilbenes” (The University of Sydney, priority 2011, dated 2020).

Columns and labels:
[1] = biological target: KDR (Homo sapiens, UniProt P35968); assay: Kinase activity assay; assay type: biochemical; conditions: listed = inhibited more than 60%
Method: (§1) • Kinase-Glo(Plus)/ADP-Gloassay buffer 25 mMHEPES, 10 mMMgCl2, 0.01% Triton X-100, 100 μg/mLBSA, 2.5 mMDTT, pH7.4. • Caliper assay buffer 100 mMHEPES, 10 mMMgCl2, 100 μl/L Brij35 (30%), 1 mMDTT, pH7.4. Assay Substrates • MBP protein, UnactiveMEK1, Rbprotein were purchased from SignalChem. Poly(glu:tyr)(4:1) was purchased from Sigma. PIP2 was purchased from Cayman. Peptide substrates were synthesized in HD Biosciences, China. ATP was purchased from Sigma. KinaseGloPlus reagent, KinaseGloreagent and ADP Gloreagent were purchased from Promega Assay Procedure—Caliper Format
(§2) Mix Kinases, substrate, ATP and compound in 96-well assay plate, total volume is 50 μL. Incubate assay plate at 30° C. for 1 hour. Stop reaction by adding 20 μL of 35 mM EDTA and transfer 26 μL stopped reaction to 384-well assay plate. Read the assay plate on the plate reader.
(§3) Mix Kinases, substrate, ATP and compound in 384-well assay plate, total volume is 10 μl. Incubate assay plate at 30° C. for 1 hour. Add 10 μl/well of ADP GloReagent to the assay plate, incubate at 27° C. for 40 min.
(§4) Add 20 μl/well Detection Reagent to the assay plate, incubate at 27° C. for 30 min. Read the assay plate on the plate reader
(§5) Mix Kinase, substrate, ATP and compound in 384-well assay plate, total volume is 10 μl. Incubate assay plate at 30° C. for 1 hour. Add 10 μl/well KinaseGlo(Plus) reagent to the reaction mixture, and then incubate at 27° C. for 20 min. Read the assay plate on plate reader. • Hundred percent effect was performed without compound and enzyme, but containing ATP and substrate. • Zero percent effect was carried out without compound, but containing ATP, substrate and enzyme. • SB202190 is reference compounds for kinase p38β; Staurosporine(STSP) is reference compound for the remaining kinases. Results

[2] = biological target: FLT1 (Homo sapiens, UniProt P17948); assay: Kinase activity assay; assay type: biochemical; conditions: listed = inhibited more than 60%
Chain of FLT1 (P17948 27-1338, species assumed): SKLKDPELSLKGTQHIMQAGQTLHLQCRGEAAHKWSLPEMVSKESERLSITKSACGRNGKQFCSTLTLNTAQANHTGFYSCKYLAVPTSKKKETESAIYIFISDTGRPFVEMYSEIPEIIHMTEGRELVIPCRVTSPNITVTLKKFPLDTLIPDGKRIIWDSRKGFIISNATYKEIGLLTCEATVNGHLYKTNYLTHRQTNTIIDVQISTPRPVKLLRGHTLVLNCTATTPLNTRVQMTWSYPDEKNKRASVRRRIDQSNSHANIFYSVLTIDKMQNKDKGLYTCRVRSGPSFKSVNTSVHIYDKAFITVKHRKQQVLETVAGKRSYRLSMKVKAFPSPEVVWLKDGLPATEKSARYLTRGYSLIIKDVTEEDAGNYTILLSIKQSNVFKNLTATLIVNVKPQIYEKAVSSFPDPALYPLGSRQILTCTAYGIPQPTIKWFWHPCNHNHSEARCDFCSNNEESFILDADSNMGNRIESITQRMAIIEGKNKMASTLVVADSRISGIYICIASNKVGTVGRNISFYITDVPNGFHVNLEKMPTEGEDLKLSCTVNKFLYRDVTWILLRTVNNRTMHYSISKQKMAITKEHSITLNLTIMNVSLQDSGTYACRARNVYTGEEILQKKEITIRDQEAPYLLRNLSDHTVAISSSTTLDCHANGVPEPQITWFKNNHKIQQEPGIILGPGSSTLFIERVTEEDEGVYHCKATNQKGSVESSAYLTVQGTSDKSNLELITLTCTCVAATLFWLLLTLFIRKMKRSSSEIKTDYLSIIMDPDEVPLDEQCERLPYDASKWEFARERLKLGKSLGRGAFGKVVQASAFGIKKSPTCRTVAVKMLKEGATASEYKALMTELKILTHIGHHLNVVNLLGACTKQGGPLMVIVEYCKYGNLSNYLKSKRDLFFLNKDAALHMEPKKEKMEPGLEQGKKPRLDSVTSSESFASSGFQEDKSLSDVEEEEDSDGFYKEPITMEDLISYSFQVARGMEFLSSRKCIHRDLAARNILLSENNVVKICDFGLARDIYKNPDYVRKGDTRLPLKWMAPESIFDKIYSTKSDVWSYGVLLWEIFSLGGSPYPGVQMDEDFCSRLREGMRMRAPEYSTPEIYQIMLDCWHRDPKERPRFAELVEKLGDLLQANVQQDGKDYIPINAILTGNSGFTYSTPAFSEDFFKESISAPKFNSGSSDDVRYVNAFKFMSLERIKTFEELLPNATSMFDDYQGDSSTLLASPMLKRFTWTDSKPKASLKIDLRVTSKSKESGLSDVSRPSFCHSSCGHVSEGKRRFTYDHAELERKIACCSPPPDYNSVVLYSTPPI
Method: as §1, §2, §3, §4, §5

[3] = biological target: CDK1/CyclinB (Homo sapiens, UniProt P06493); assay: Kinase activity assay; assay type: biochemical; conditions: listed = inhibited more than 60%
Chain of CDK1/CyclinB (P06493 whole entry, species assumed): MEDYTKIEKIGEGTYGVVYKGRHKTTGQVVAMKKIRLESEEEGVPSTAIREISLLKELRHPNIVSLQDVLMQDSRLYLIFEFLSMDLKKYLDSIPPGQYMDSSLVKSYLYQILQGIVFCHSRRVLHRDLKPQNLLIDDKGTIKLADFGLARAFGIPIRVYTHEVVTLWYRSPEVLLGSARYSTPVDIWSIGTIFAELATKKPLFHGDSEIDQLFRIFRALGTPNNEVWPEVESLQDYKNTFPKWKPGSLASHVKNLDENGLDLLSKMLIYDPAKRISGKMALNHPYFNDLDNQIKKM
Chain of CDK1/CyclinB (P14635 whole entry partner, species assumed): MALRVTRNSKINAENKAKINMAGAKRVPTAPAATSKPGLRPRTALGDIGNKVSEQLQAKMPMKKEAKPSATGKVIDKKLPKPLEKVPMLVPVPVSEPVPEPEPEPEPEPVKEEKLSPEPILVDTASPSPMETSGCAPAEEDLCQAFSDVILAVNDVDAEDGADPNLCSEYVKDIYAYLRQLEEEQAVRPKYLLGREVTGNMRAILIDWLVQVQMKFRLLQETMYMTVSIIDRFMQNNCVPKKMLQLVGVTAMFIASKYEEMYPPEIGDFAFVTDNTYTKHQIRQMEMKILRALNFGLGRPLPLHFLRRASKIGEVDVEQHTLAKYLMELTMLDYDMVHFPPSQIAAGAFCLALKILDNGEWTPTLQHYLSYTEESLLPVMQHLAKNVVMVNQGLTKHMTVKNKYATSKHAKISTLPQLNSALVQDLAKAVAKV
Method: as §1, §2, §3, §4, §5

[4] = Acute toxicity study (maximum tolerated dose); assay type: in vivo; conditions: for Death days / Survivor/Total day 15: IP, single dose
Method: A single mouse is given a single IP injection of 400 mg/kg; a second mouse receives a dose of 200 mg/kg IP and a third mouse receives a single dose of 100 mg/kg IP. The mice are observed for a period of 2 weeks. They are sacrificed if they lose more than 20% of their body weight or if there are other signs of significant toxicity. If all 3 mice must be sacrificed, then the next 3 dose levels (50, 25, 12.5 mg/kg) are tested in a similar way. This process is repeated until a tolerated dose is found. This dose is then designated the maximum tolerated dose (MTD) and is used to calculate the amount of material given to experimental mice during anti-tumor testing. The mice are allowed ad libitum feed and water. Drug was dissolved in 100% DMSO at concentration of 200 mg/mL.

[5] = biological target: CDK4/CyclinD3 (Homo sapiens, UniProt P11802); assay: Kinase activity assay; assay type: biochemical; conditions: listed = inhibited more than 60%
Chain of CDK4/CyclinD3 (P11802 whole entry, species assumed): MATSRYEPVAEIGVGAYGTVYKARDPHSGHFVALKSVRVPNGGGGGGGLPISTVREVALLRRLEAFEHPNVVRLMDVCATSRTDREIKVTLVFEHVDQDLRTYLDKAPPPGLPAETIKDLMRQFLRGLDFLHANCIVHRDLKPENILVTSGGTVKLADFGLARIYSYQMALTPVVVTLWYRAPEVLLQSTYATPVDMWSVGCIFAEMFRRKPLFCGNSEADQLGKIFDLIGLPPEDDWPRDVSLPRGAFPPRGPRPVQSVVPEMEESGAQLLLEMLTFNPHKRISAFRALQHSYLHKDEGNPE
Chain of CDK4/CyclinD3 (P30281 whole entry partner, species assumed): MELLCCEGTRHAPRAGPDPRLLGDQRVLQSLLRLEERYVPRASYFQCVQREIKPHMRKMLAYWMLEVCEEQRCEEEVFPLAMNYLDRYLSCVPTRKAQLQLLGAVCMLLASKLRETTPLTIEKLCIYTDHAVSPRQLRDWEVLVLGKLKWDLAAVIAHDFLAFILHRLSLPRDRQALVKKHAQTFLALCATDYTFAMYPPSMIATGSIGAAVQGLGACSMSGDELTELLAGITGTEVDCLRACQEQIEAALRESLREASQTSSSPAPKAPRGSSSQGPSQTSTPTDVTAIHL
Method: as §1, §2, §3, §4, §5

[6] = DPPH scavenging activity assay; conditions: FIG. 10, result in words
Method: The (1,1-diphenyl-2-picrylhydrazyl) DPPH assay is commonly used to test free radical scavenging ability of a compound or extracts of natural products by measurement of the reduction of DPPH* radicals at 517 nm. […] Upon reduction by an antioxidant or radical scavenger, the absorption disappears and the resulting decolorization by scavenging the radical is stoichiometric with respect to the number of electrons taken up (DPPH*+AH→DPPH:H+A*). The DPPH assay was carried out in a stepwise procedure as described below.
A methanolic solution of DPPH (0.1 mM) was stirred in a dark container at room temperature for 20 min. The solution was scanned between 400-750 nm to obtain a maximum wavelength (λmax, ˜510 nm). The concentration of the DPPH solution was adjusted with methanol to result in a maximum absorbance of approximately 1.0. Test samples at different concentrations and standard antioxidant solution (0.05 mL) were added to 0.95 mL of methanolic DPPH solution in a cuvette. Final concentrations of the test samples were 0.1, 1, 10, 50, 100 and 200 μM. The mixtures were shaken vigorously and allowed to stand in the dark for 30 min at room temperature. Absorbance of the resulting solution was measured at the maximum wavelength (˜510 nm). A decrease in absorbance indicated a free radical scavenging effect of the test samples. […]

Chain of KDR (P35968 20-1356, species assumed): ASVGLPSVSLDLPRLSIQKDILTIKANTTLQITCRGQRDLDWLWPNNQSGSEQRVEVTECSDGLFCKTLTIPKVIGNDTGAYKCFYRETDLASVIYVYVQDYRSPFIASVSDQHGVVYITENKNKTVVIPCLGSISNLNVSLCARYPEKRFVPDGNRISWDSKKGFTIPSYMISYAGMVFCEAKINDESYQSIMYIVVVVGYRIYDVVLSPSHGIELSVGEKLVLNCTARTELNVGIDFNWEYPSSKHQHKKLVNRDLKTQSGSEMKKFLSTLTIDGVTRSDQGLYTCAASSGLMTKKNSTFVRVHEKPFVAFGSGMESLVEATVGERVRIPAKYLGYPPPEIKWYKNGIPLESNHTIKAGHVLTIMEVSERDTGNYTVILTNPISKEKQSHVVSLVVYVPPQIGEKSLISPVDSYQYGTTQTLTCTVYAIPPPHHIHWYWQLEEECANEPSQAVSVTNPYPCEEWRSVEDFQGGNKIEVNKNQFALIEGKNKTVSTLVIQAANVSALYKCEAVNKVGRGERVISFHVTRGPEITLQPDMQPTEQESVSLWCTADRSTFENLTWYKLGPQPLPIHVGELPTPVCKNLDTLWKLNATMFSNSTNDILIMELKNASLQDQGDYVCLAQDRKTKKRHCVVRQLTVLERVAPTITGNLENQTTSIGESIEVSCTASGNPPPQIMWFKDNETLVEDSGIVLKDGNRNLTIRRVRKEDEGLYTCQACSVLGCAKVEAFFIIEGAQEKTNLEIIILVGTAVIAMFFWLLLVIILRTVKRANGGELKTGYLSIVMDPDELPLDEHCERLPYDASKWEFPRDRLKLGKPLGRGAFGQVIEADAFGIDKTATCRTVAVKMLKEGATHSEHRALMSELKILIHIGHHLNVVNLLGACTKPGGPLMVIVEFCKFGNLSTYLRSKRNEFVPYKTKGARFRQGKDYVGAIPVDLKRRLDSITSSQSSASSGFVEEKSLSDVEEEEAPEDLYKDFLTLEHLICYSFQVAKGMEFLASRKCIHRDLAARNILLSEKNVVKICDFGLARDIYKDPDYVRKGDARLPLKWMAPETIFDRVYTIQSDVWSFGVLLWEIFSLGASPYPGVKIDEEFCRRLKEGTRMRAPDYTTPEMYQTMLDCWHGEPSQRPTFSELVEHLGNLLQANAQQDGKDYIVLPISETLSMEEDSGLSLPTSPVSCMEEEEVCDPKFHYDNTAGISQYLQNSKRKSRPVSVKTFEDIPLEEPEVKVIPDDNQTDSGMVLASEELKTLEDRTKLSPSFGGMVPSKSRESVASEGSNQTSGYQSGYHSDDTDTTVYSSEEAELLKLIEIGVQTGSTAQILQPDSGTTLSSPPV

COc1cc(/C=C/c2cc(O)cc(O)c2CC=C(C)C)ccc1O [USYDS10, (E)-2-(3-methyl-2-buten-1-yl)-3,4′,5-trihydroxy-3′-methoxystilbene]
Kinases that inhibited more than 60% [1]: KDR
Kinases that inhibited more than 60% [2]: FLT1
Kinases that inhibited more than 60% [3]: CDK1/CyclinB

COc1cc(/C=C/c2cc(O)cc(OC)c2CC=C(C)C)ccc1O [USYDS1, (E)-2-(3-methyl-2-buten-1-yl)-4′,5-dihydroxy-3,3′-dimethoxystilbene]
MTD at 2 weeks ([4]; in vivo, mouse, single IP injection, observed 2 weeks): 100 mg/kg
Death days ([4]; mouse, 100 mg/kg/dose): None
Survivor/Total day 15 ([4]; mouse, 100 mg/kg/dose): 1/1
Death days ([4]; mouse, 200 mg/kg/dose): 1
Survivor/Total day 15 ([4]; mouse, 200 mg/kg/dose): 0/1
Death days ([4]; mouse, 400 mg/kg/dose): 1
Survivor/Total day 15 ([4]; mouse, 400 mg/kg/dose): 0/1
mammalian toxicity ([4]; result in words): low mammalian toxicity
Kinases that inhibited more than 60% [5]: CDK4/CyclinD3

CC(C)=CCc1c(O)cc(/C=C/c2ccc(O)c(O)c2)c(CC=C(C)C)c1O [USYDS7, (E)-2,4-di(3-methyl-2-buten-1-yl)-3,3′,4′,5-tetrahydroxystilbene]
effect on free radical scavenging [6]: strong effect
